From patent US20060100431A1, “Biologically active compounds” (Amura Therapeutics Limited, priority 2002, published 2006)

These compounds were tested against T1, human cathepsin K (Homo sapiens, UniProt P43235) (assay: Cathepsin K peptidase activity assay (Ki)). Settings: Table 5.
T1 construct: Dr. Boris Turk (Josef Stefan Institute, Ljubljana, Slovenia)
T1 sequence (P43235 115-329): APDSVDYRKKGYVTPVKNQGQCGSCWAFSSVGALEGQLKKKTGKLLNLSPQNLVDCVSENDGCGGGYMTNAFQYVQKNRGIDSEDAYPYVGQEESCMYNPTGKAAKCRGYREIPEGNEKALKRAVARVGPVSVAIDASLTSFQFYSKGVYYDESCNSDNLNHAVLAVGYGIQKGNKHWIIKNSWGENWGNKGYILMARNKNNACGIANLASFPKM
Type: biochemical
Description: Unless otherwise stated, all general chemicals and biochemicals were purchased from either the Sigma Chemical Company, Poole, Dorset, U.K or from Fisher Scientific UK, Loughborough, Leicestershire, U.K. Absorbance assays were carried out in flat-bottomed 96-well plates (Spectra; Greiner Bio-One Ltd., Stonehouse, Gloucestershire, U.K.) using a SpectraMax PLUS384 plate reader (Molecular Devices, Crawley, U.K.). […] Fluorescence assays were monitored using a SpectraMax Gemini fluorescence plate reader (Molecular Devices). For substrates employing either a 7-amino-4-methylcoumarin (AMC) or a 7-amino-4-trifluoromethylcoumarin (AFC) fluorophore, assays were monitored at an excitation wavelength of 365 nm and an emission wavelength of 450 nm and the fluorescence plate reader calibrated with AMC. For substrates employing a 3-amino-benzoyl (Abz) fluorophore, assays were monitored at an excitation wavelength of 310 nm and an emission wavelength of 445 nm; the fluorescence plate reader calibrated with 3-amino-benzamide (Fluka). Unless otherwise indicated, all the peptidase substrates were purchased from Bachem UK, St Helens, Merseyside, UK. […] Hydroxyethylpiperazine ethanesulfonate (HEPES), tris-hydroxylmethyl aminomethane (tris) base, bis-tris-propane and all the biological detergents (e.g. CHAPS, zwittergents, etc.) were purchased from CN Biosciences UK, Beeston, Nottinghamshire, U.K. Glycerol was purchased from Amersham Pharmacia Biotech, Little Chalfont, Buckinghamshire, U.K. Stock solutions of substrate or inhibitor were made up to 10 mM in 100% dimethylsulfoxide (DMSO) (Rathburns, Glasgow, U.K.) and diluted as appropriately required. In all cases the DMSO concentration in the assays was maintained at less than 1% (vol./vol.).
Enzyme was added as required to initiate the reaction and the activity, as judged by the change in fluorescence upon conversion of substrate to product, was monitored over time. All assays were carried out at 25±1° C.
Bovine cathepsin S, human cathepsin L, human cathepsin H and human cathepsin B were obtained from CN Biosciences. Recombinant human cathepsin S, human cathepsin K and human cathepsin X were obtained from Dr. Boris Turk (Josef Stefan Institute, Ljubljana, Slovenia). Unless otherwise stated, all peptidase activity assays were carried out in 10 mM bis-tris-propane (BTP), pH 6.5 containing 1 mM EDTA, 5 mM 2-mercaptoethanol and 1 mM CaCl2.
The apparent inhibition constant (Ki) for each compound was determined on the basis that inhibition was reversible and occurred by a pure-competitive mechanism. […] [formula]
[formula] Ki^app=Ki(1+[So]/KM^app) (4)
Curves were fitted by non-linear regression analysis (Prism) using a fixed value for the enzyme concentration.
In the case of `CC(C)C[C@H](NC(=O)c1ccc(-c2cccs2)cc1)C(=O)N1CC[C@@H]2[C@H]1C(=O)CN2C(=O)c1ccccc1` [Example 2, (3aR,6aS)-N-[(1S)-1-(4-Benzoyl-6-oxo-hexahydro-pyrrolo[3,2-b]pyrrole-1-carbonyl)-3-methyl-butyl]-4-thiophen-2-yl-benzamide], the Ki is reported as less than 0.01 µM.
`O=C(N[C@@H](CC1CCCCC1)C(=O)N1CC[C@@H]2[C@H]1C(=O)CN2C(=O)c1ccccc1)c1ccsc1` [Example 250, (3aR,6aS)-Thiophene-3-carboxylic acid [(1S)-2-(4-benzoyl-6-oxo-hexahydro-pyrrolo[3,2-b]pyrrole-1-yl)-1-cyclohexylmethyl-2-oxo-ethyl]-amide] was tested, and the Ki was greater than 5 µM.
`O=C(N[C@@H](Cc1ccc(O)cc1)C(=O)N1CC[C@@H]2[C@H]1C(=O)CN2C(=O)c1ccccc1)c1cccc2ccccc12` [Example 296, (3aR,6aS)-Naphthalene-1-carboxylic acid [(1S)-2-(4-benzoyl-6-oxo-hexahydro-pyrrolo[3,2-b]pyrrole-1-yl)-1-(4-hydroxybenzyl)-2-oxo-ethyl]-amide] showed a Ki greater than 50 µM.
With `CC(C)(C)c1ccc(C(=O)N[C@@H](Cc2ccc(O)cc2)C(=O)N2CC[C@@H]3[C@H]2C(=O)CN3C(=O)c2ccccc2)cc1` [Example 346, (3aR,6aS)-N-[(1S)-2-(4-Benzoyl-6-oxo-hexahydro-pyrrolo[3,2-b]pyrrol-1-yl)-1-(4-hydroxybenzyl)-2-oxo-ethyl]-4-tert-butyl-benzamide] the Ki was greater than 8 µM.
